Test results from BigSolDB 2.1.

CC(=O)c1ccc2ccccc2c1O
Conditions | solubility (mole fraction)
in cyclohexane, 292.4 K | 0.0076
in cyclohexane, 296.55 K | 0.0092
in cyclohexane, 300.65 K | 0.0114
in cyclohexane, 304.9 K | 0.014
in cyclohexane, 308.6 K | 0.0173
in cyclohexane, 313.55 K | 0.0222
in cyclohexane, 318.5 K | 0.0285
in cyclohexane, 324.75 K | 0.0382
in cyclohexane, 329.65 K | 0.0511
in cyclohexane, 333.95 K | 0.0679
in cyclohexane, 337.6 K | 0.0872
in cyclohexane, 340.65 K | 0.109
in ethanol, 289.15 K | 0.0049
in ethanol, 292.6 K | 0.0055
in ethanol, 296.25 K | 0.0064
in ethanol, 299.95 K | 0.0075
in ethanol, 304.55 K | 0.0089
in ethanol, 307.95 K | 0.0104
in ethanol, 310.55 K | 0.0117
in ethanol, 312.9 K | 0.013
in ethanol, 316.4 K | 0.015
in ethanol, 319.6 K | 0.0174
in ethanol, 323.4 K | 0.0207
in ethanol, 327.35 K | 0.025
in ethanol, 331.2 K | 0.0313
in ethanol, 334.95 K | 0.0399
in ethanol, 338.65 K | 0.052
in ethanol, 342.25 K | 0.0696
in n-butanol, 280.85 K | 0.0054
in n-butanol, 285.65 K | 0.0065
in n-butanol, 291.55 K | 0.0084
in n-butanol, 295.65 K | 0.0101
in n-butanol, 299.45 K | 0.012
in n-butanol, 303.75 K | 0.0144
in n-butanol, 308.25 K | 0.0179
in n-butanol, 312.75 K | 0.0219
in n-butanol, 318.65 K | 0.0291
in n-butanol, 325.85 K | 0.0431
in n-butanol, 328.95 K | 0.0523
in n-butanol, 332.65 K | 0.0648
in n-butanol, 335.75 K | 0.0788
in n-butanol, 336.45 K | 0.0831
in n-heptane, 290.65 K | 0.008
in n-heptane, 295.25 K | 0.0099
in n-heptane, 299.9 K | 0.0123
in n-heptane, 304.65 K | 0.0153
in n-heptane, 310.15 K | 0.019
in n-heptane, 315.4 K | 0.0239
in n-heptane, 321.65 K | 0.0306
in n-heptane, 327.2 K | 0.0395
in n-heptane, 332.65 K | 0.05
in n-heptane, 338.55 K | 0.0627
in n-heptane, 344.35 K | 0.0898
in n-heptane, 348.35 K | 0.116
in n-hexane, 281.65 K | 0.0045
in n-hexane, 286.55 K | 0.0056
in n-hexane, 289.75 K | 0.0065
in n-hexane, 293.45 K | 0.0077
in n-hexane, 297.35 K | 0.0091
in n-hexane, 301.95 K | 0.0107
in n-hexane, 305.45 K | 0.0129
in n-hexane, 309.95 K | 0.0156
in n-hexane, 314.25 K | 0.0189
in n-hexane, 319.55 K | 0.0236
in n-hexane, 324.05 K | 0.0288

CC(=O)c1c(O)ccc2ccccc12
Conditions | solubility (mole fraction)
in cyclohexane, 292.9 K | 0.0181
in cyclohexane, 296.6 K | 0.0229
in cyclohexane, 300.7 K | 0.0292
in cyclohexane, 304.8 K | 0.0379
in cyclohexane, 308.85 K | 0.0505
in cyclohexane, 312.6 K | 0.068
in cyclohexane, 316.25 K | 0.0957
in cyclohexane, 318.95 K | 0.132
in cyclohexane, 320.35 K | 0.162
in cyclohexane, 321.85 K | 0.19
in ethanol, 285.7 K | 0.0615
in ethanol, 288.9 K | 0.0712
in ethanol, 293.05 K | 0.0859
in ethanol, 297 K | 0.104
in ethanol, 301.15 K | 0.135
in ethanol, 304.55 K | 0.168
in ethanol, 310.05 K | 0.234
in ethanol, 314.65 K | 0.321
in n-butanol, 282.55 K | 0.0555
in n-butanol, 288.55 K | 0.0724
in n-butanol, 293.35 K | 0.0897
in n-butanol, 299 K | 0.117
in n-butanol, 303.95 K | 0.155
in n-butanol, 307.95 K | 0.201
in n-butanol, 311.75 K | 0.257
in n-butanol, 314.95 K | 0.328
in n-butanol, 317.35 K | 0.389
in n-butanol, 318.15 K | 0.408
in n-heptane, 288.75 K | 0.0133
in n-heptane, 293.15 K | 0.0163
in n-heptane, 296.95 K | 0.0198
in n-heptane, 301.8 K | 0.0239
in n-heptane, 302.4 K | 0.0245
in n-heptane, 306.55 K | 0.0305
in n-heptane, 312.05 K | 0.0404
in n-heptane, 317.15 K | 0.056
in n-heptane, 322.05 K | 0.079
in n-heptane, 326.05 K | 0.115
in n-heptane, 328.45 K | 0.166
in n-heptane, 329.25 K | 0.214
in n-hexane, 283.75 K | 0.0082
in n-hexane, 289.25 K | 0.0107
in n-hexane, 295.55 K | 0.0141
in n-hexane, 299.25 K | 0.0175
in n-hexane, 305.2 K | 0.0242
in n-hexane, 310.6 K | 0.032
in n-hexane, 311.45 K | 0.0339
in n-hexane, 314.8 K | 0.0414
in n-hexane, 319.05 K | 0.0529
in n-hexane, 323.45 K | 0.0716
